In patent publication US10736898B2, “Positive allosteric modulators of the muscarinic acetylcholine receptor M4” (Vanderbilt University, priority 2017, dated 2020):

Key:
[1] = test system: male Sprague-Dawley rats; test: Reversal of amphetamine-induced hyperlocomotion in rats; format: in vivo, rat; conditions: 10 mg/kg p.o.
Method: Drugs: d-Amphetamine hemisulfate was obtained from Sigma (St. Louis, Mo.). Salt-correction was used to determine the correct amount of the d-amphetamine hemisulfate form in milligrams to add to sterile water in order to yield a 0.75 mg/mL solution, which would be dosed at 1 mL/kg body weight of each animal. […] The solutions were formulated so that animals were injected with a volume equal to 10 mL/kg body weight for all compounds. The appropriate amount according to the dosage was mixed in 10% Tween 80 (Sigma) 90% sterile water. The mixtures were then vortexed and stored in a 39° C. sonication bath for 1 hour, until in a microsuspension (except for the highest dose, which was a suspension).
Animals: Male Sprague-Dawley rats weighing 239-300 grams and averaging 265 g (Harlan, Inc., Indianapolis, Ind.) were used. They were housed in the animal care facility certified by the American Association for the Accreditation of Laboratory Animal Care (AALAC) under a 12-hour light/dark cycle (lights on: 6 a.m.; lights off: 6 p.m.) and had free access to food and water. The animals used in this experiment were food-deprived the evening before experimentation for oral dosing of compound/vehicle. The experimental protocols performed during the light cycle were approved by the Institutional Animals Care and Use Committee of Vanderbilt University and conformed to the guidelines established by the National Research Council Guide for the Care and Use of Laboratory Animals.
Amphetamine-induced Hyperlocomotion: Male Harlan Sprague Dawley rats were habituated in Smart Open Field locomotor activity test chambers (Hamilton-Kinder, San Diego, Calif.) with 16×16 photo beams to automatically record locomotor activity. […] They were monitored for an additional 30 minutes and then injected subcutaneously with vehicle or […] amphetamine. Animals were then monitored for an additional 60 minutes, for a total of 120 minutes. Data were expressed as changes in ambulation defined as total number of beam breaks per 5 minute interval. […]
Data Analysis: Behavioral data were analyzed using a two-way ANOVA with main effects of treatment and time. […] In addition, the total number of beam breaks from the amphetamine administration (65 min) to the end of the study (120 min) was calculated and graphed. Percent Reversal was calculated as follows using Microsoft Excel: In each animal, total ambulation from t=65 to t=120 was summed. The mean of each sum was calculated in the VAMP group. Then, for each animal, Percent Reversal was calculated with the following formula: Percent Reversal=100−{[(total ambulation in each animal from t=65 to t=120)/(mean of each sum from t=65 to t=120 in VAMP group)]*100}. The mean Percent Reversal, as well as the standard error, was calculated for each dose group using GraphPad Prism V5.04.

[2] = target: T1, Human M4 (Homo sapiens, UniProt P08173); test: mAChR M4 cell-based functional assay (calcium flux, potentiation of EC20 acetylcholine response); conditions: for EC50: CHO-K1 cells with human M4 and Gqi5, increase in EC20 acetylcholine response
T1 construct: expressed in transfected cells
T1 sequence (P08173 1-479): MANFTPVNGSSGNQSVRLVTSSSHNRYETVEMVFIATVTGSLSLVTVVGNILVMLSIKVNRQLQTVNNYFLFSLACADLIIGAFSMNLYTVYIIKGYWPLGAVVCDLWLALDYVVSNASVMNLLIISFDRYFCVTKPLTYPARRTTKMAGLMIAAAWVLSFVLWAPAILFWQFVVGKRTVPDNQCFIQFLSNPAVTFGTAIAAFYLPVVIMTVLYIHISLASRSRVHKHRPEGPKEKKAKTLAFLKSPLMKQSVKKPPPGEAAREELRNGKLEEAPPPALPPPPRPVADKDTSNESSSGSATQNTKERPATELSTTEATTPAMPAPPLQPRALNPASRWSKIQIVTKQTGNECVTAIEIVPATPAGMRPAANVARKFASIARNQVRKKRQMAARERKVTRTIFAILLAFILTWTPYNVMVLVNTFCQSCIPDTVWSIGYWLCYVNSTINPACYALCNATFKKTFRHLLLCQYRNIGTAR
Method: Human M4 cDNA, along with the chimeric G protein Gqi5, were transfected into Chinese hamster ovary (CHO-K1) cells purchased from the American Type Culture Collection using commercially available Lipofectamine 2000 transfection reagent (Dalby, B. et al., Methods (2004) 33(2), 95-103). hM4-Gqi5 cells were grown in Ham's F-12 medium containing 10% heat-inactivated fetal bovine serum (FBS), 20 mM HEPES, 50 μg/mL G418 sulfate (CAS #108321-42-2), and 500 μg/mL Hygromycin B. rM4-Gqi5 cells were grown in DMEM containing 10% heat-inactivated FBS, 20 mM HEPES, 400 μg/mL G418 sulfate, and 500 μg/mL Hygromycin B.
For high throughput measurement of agonist-evoked increases in intracellular calcium, CHO-K1 cells stably expressing muscarinic receptors were plated in growth medium lacking G418 sulfate and hygromycin at 15,000 cells/20 μL/well in Greiner 384-well black-walled, tissue culture (TC)-treated, clear-bottom plates (VWR). Cells were incubated overnight at 37° C. and 5% CO2. The next day, cells were washed using an ELX 405 (BioTek) with assay buffer; the final volume was then aspirated to 20 μL. […] Dye was removed by washing with the ELX 405 and the final volume was aspirated to 20 μL. Compound master plates were formatted in an 11 point concentration-response curve (CRC) format (1:3 dilutions) in 100% DMSO with a starting concentration of 10 mM using a BRAVO liquid handler (Agilent). Test compound CRCs were then transferred to daughter plates (240 nL) using the Echo acoustic plate reformatter (Labcyte, Sunnyvale, Calif.) and then diluted into assay buffer (40 μL) to a 2× stock using a Thermo Fisher Combi (Thermo Fisher Scientific, Waltham, Mass.).
Calcium flux was measured using the Functional Drug Screening System (FDSS) 6000 or 7000 (Hamamatsu Corporation, Tokyo, Japan) as an increase in the fluorescent static ratio. Compounds were applied to cells (20 μL, 2×) using the automated system of the FDSS at 2-4 seconds into the protocol and the data were collected at 1 Hz. At 144 seconds, 10 μL of an EC20 concentration of the muscarinic receptor agonist acetylcholine was added (5×), followed by the addition of 12 μL of an EC80 concentration of acetylcholine at the 230 second time point (5×). Agonist activity was analyzed as a concentration-dependent increase in calcium mobilization upon compound addition. Positive allosteric modulator activity was analyzed as a concentration-dependent increase in the EC20 acetylcholine response. […] Antagonist activity was analyzed as a concentration-dependent decrease in the EC80 acetylcholine response. Concentration-response curves were generated using a four-parameter logistical equation in XLFit curve fitting software (IDBS, Bridgewater, N.J.) for Excel (Microsoft, Redmond, Wash.) or Prism (GraphPad Software, Inc., San Diego, Calif.).

[3] = % ACh maximum at 30 μM, human M4

Molecule	percent reversal of amphetamine-induced hyperlocomotion [1]	Emax at 30 µM [2, 3]	EC50 [2]	Emax [2, 3]
Cc1nnc2sc(C(=O)NCc3ccc(S(=O)(=O)C(F)(F)F)cc3)c(N)c2c1C [VU0467154-9A, 5-amino-3,4-dimethyl-N-(4-((trifluoromethyl)sulfonyl)benzyl)thieno[2,3-c]pyridazine-6-carboxamide, reference compound]	55.0%	–	–	–
COc1ccc(CNc2nccc3c2sc2nc(C)nc(C)c23)cc1F [Compound 13, N-(3-fluoro-4-methoxybenzyl)-2,4-dimethylpyrido[4′,3′:4,5]thieno[2,3-d]pyrimidin-8-amine]	–	84.4%	169 nM	–
5-chloro-N-[(3-fluoro-4-methoxy-phenyl)methyl]-2,4-dimethyl-pyrido[4,5]thieno[1,2-b]pyrimidin-8-amine [Compound 42]	–	–	723 nM	60.5%
Cc1nc(C2CC2)nc2sc3c(NCc4ccc(C(C)(C)O)cc4)nccc3c12 [Compound 28, 2-[4-[[(2-cyclopropyl-4-methyl-pyrido[4,5]thieno[1,2-d]pyrimidin-8-yl)amino]methyl]phenyl]propan-2-ol]	–	97%	1390 nM	–
Cc1nc(C)c2c(n1)sc1c(N3CCC3)ncnc12 [Compound 16, 4-(azetidin-1-yl)-7,9-dimethylthieno[2,3-d:4,5-d′]dipyrimidine]	–	59.9%	1440 nM	–
Cc1nc(C)c2c(n1)sc1c(N3CC4(COC4)C3)ncnc12 [Compound 10, 6-(7,9-dimethylthieno[2,3-d:4,5-d′]dipyrimidin-4-yl)-2-oxa-6-azaspiro[3.3]heptane]	–	76%	1580 nM	–
Cc1nc(CC(C)C)nc2sc3c(NCc4ccc(C(C)(C)O)cc4)nccc3c12 [Compound 36, 2-[4-[[(2-isobutyl-4-methyl-pyrido[4,5]thieno[1,2-b]pyrimidin-8-yl)amino]methyl]phenyl]propan-2-ol]	–	66.4%	> 10000 nM	–
CCN(CC)C(=O)c1ccc(CNc2nccc3c2sc2nc(C)nc(C)c23)cc1 [Compound 23, 4-[[(2,4-dimethylpyrido[4,5]thieno[1,2-b]pyrimidin-8-yl)amino]methyl]-N,N-diethyl-benzamide]	–	78.8%	4240 nM	–
Cc1nc(C)c2c(n1)sc1c(NC3CCC3)nccc12 [Compound 26, N-cyclobutyl-2,4-dimethyl-pyrido[4,5]thieno[1,2-b]pyrimidin-8-amine]	–	94.8%	300 nM	–
Cc1nc(C)c2c(n1)sc1c(NCc3ccc(C(C)(C)O)cc3F)nccc12 [Compound 22, 2-[4-[[(2,4-dimethylpyrido[4,5]thieno[1,2-b]pyrimidin-8-yl)amino]methyl]-3-fluoro-phenyl]propan-2-ol]	–	88.7%	840 nM	–
